From US20230414515A1, “ACETIC ACID AS PROCESSING AID IN SPRAY DRYING FOR BASIC DRUGS” (Lonza Bend Inc., priority 2020, published 2023)
≈ marks a conversion by molar mass, not a printed value. Each block holds one compound with its values, some of them ahead of it.

What was measured:
[1] = cited from earlier work; for basic pKa: pH at which half of the basic sites are protonated
[2] = Solubility of dasatinib in methanol (saturated solution, TGA); format: physicochemical; conditions: organic solvent or mixture, thermodynamic from solid, 25° C., analyzed by TGA
Description: Dasatinib free base was recrystallized from methanol and dried. Crystalline dasatinib was added in excess to methanol to form a saturated solution at 25° C. The solution was analyzed by TGA and found to contain 3.1 mg/mL dasatinib.

[3] = Gefitinib solubility in methanol and methanol:water mixtures without acetic acid (HPLC); format: physicochemical; conditions: thermodynamic from solid, 24 hour stirring
Description: Crystalline gefitinib was added in excess to methanol and methanol:water mixtures to form saturated solutions at 20° C. After 24 hour of stirring, 1 mL aliquots were centrifuged at 10′000 RCF for 3 min.

physchem = conditions: 20 °C, organic solvent or mixture, thermodynamic from solid
Description: The solubility of gefitinib in solvent mixtures with acetic acid were obtained by suspending 300 mg of crystalline gefitinib in 5 mL of solvent (methanol:water) containing 150 microliters of acetic acid at 20° C. (3.9 eq of acetic acid). […] The solubility in 100% methanol with acetic acid was determined after separating undissolved solids by centrifugation of a 1 mL aliquot at 10′000 RCF for 3 min after 1 hour of stirring. The supernatant was then analyzed for gefitinib concentration by HPLC.

- solubility [2]: 3100 µg/mL (≈ 6.35 mM)
SMILES: Cc1nc(Nc2ncc(C(=O)Nc3c(C)cccc3Cl)s2)cc(N2CCN(CCO)CC2)n1 [dasatinib]
- basic pKa [1]: 7.2

SMILES: CCC[C@H](NC(=O)[C@@H]1[C@H]2CCC[C@H]2CN1C(=O)[C@@H](NC(=O)[C@@H](NC(=O)c1cnccn1)C1CCCCC1)C(C)(C)C)C(=O)C(=O)NC1CC1 [VX-950, Telaprevir]
- basic pKa [1]: −0.69

SMILES: N#Cc1ccnc(N2C(=O)CC[C@H]2C(=O)N(c2cncc(F)c2)[C@H](C(=O)NC2CC(F)(F)C2)c2ccccc2Cl)c1 [Ivosidenib, ivosidenib]
- basic pKa [1]: ca. 1.81

- solubility at 24 h ([3]; methanol:water 60:40, organic solvent or mixture, Methanol:H2O 60:40, 20° C.): 2100 µg/mL (≈ 4.7 mM)
- solubility at 24 h ([3]; methanol:water 70:30, organic solvent or mixture, Methanol:H2O 70:30, 20° C.): 4000 µg/mL (≈ 8.95 mM)
- solubility at 24 h ([3]; methanol:water 80:20, organic solvent or mixture, Methanol:H2O 80:20, 20° C.): 6300 µg/mL (≈ 14.1 mM)
- solubility at 24 h ([3]; methanol:water 90:10, organic solvent or mixture, Methanol:H2O 90:10, 20° C.): 6000 µg/mL (≈ 13.4 mM)
- solubility at 24 h ([3]; organic solvent or mixture, Methanol:H2O 100:0, 20° C.): 5200 µg/mL (≈ 11.6 mM)
- solubility at 1 h (physchem; methanol with acetic acid): 31000 µg/mL (≈ 69.4 mM)
- solubility (physchem; methanol:water 60:40 with acetic acid): > 60000 µg/mL
- solubility (physchem; methanol:water 70:30 with acetic acid): > 60000 µg/mL
- solubility (physchem; methanol:water 80:20 with acetic acid): > 60000 µg/mL
- solubility (physchem; methanol:water 90:10 with acetic acid): > 60000 µg/mL
- solubility (physchem; methanol:water mixtures with acetic acid): ≥ 60000 µg/mL
SMILES: COc1cc2ncnc(Nc3ccc(F)c(Cl)c3)c2cc1OCCCN1CCOCC1 [gefitinib]
- basic pKa [1]: 6.8

SMILES: COc1ccc(-n2nc(C(N)=O)c3c2C(=O)N(c2ccc(N4CCCCC4=O)cc2)CC3)cc1 [Apixaban, apixaban]
- acidic pKa ([1]; pH at which half of the acidic site is deprotonated): ca. 13
- basic pKa [1]: < 2
